From ChEMBL document CHEMBL4725372, “Rational Design of Suprastat: A Novel Selective Histone Deacetylase 6 Inhibitor with the Ability to Potentiate Immunotherapy in Melanoma Models” (J Med Chem, 2020)
Calls of active or inactive are those of the source. The rule behind the calls is not given here.

Key:
Histone deacetylase 11 = biological target: T1, Histone deacetylase 11 (Homo sapiens, UniProt Q96DB2); experiment: Inhibition of human HDAC11 expressed in HEK293/T17 cells pre-incubated for 10 mins before […] addition and measured after 30 mins by fluorescence-based assay; type: cell-based
T1 sequence (Q96DB2 whole entry): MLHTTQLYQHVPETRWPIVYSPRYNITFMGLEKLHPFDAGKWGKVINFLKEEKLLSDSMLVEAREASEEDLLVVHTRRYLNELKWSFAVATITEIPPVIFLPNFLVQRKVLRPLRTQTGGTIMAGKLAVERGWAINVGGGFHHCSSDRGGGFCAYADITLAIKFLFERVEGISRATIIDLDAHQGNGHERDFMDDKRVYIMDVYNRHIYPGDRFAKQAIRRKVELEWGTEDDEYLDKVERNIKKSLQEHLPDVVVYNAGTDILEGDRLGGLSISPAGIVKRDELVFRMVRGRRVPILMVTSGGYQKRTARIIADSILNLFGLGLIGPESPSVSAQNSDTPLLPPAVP

HEK293 [1] = experiment: Selectivity index, ratio of IC50 for human HDAC1 expressed in HEK293/T17 cells (unknown origin) to human HDAC6 expressed in HEK293/T17 cells; type: cell-based
HEK293 [2] = experiment: Selectivity index, ratio of IC50 for human HDAC2 expressed in HEK293/T17 cells (unknown origin) to human HDAC6 expressed in HEK293/T17 cells; type: cell-based
HEK293 [3] = experiment: Selectivity index, ratio of IC50 for human HDAC3 expressed in HEK293/T17 cells (unknown origin) to human HDAC6 expressed in HEK293/T17 cells; type: cell-based
HEK293 [4] = experiment: Selectivity index, ratio of IC50 for human HDAC4 expressed in HEK293/T17 cells (unknown origin) to human HDAC6 expressed in HEK293/T17 cells; type: cell-based
HEK293 [5] = experiment: Selectivity index, ratio of IC50 for human HDAC5 expressed in HEK293/T17 cells (unknown origin) to human HDAC6 expressed in HEK293/T17 cells; type: cell-based
HEK293 [6] = experiment: Selectivity index, ratio of IC50 for human HDAC6 expressed in HEK293/T17 cells (unknown origin) to human HDAC6 expressed in HEK293/T17 cells; type: cell-based
HEK293 [7] = experiment: Selectivity index, ratio of IC50 for human HDAC7 expressed in HEK293/T17 cells (unknown origin) to human HDAC6 expressed in HEK293/T17 cells; type: cell-based
HEK293 [8] = experiment: Selectivity index, ratio of IC50 for human HDAC8 expressed in HEK293/T17 cells (unknown origin) to human HDAC6 expressed in HEK293/T17 cells; type: cell-based
HEK293 [9] = experiment: Selectivity index, ratio of IC50 for human HDAC9 expressed in HEK293/T17 cells (unknown origin) to human HDAC6 expressed in HEK293/T17 cells; type: cell-based
[10] = Half life in PBS by LC-MS/MS analysis; type: physicochemical
[11] = Half life in SGF by LC-MS/MS analysis; type: ADME
[12] = Half life in human plasma at 10 uM by LC-MS/MS analysis; type: ADME, cell-free
[13] = Half life in rat liver microsome at 10 uM by LC-MS/MS analysis; type: ADME; conditions: liver microsomes
[14] = Protein binding in human plasma at 10 uM incubated for 1 hr by LC-MS/MS analysis; type: ADME, cell-free; conditions: read-out: PPB (converted)
[15] = biological target: T2, Protein deacetylase HDAC6 (Homo sapiens) (UniProt Q9UBN7); experiment: Inhibition of human HDAC6 in human WM164 cells increase in acetylated alpha-tubulin levels at 0.1 to 10 uM by immunoblot analysis; type: cell-based; conditions: dose microM 0.1-10
T2 sequence (whole entry): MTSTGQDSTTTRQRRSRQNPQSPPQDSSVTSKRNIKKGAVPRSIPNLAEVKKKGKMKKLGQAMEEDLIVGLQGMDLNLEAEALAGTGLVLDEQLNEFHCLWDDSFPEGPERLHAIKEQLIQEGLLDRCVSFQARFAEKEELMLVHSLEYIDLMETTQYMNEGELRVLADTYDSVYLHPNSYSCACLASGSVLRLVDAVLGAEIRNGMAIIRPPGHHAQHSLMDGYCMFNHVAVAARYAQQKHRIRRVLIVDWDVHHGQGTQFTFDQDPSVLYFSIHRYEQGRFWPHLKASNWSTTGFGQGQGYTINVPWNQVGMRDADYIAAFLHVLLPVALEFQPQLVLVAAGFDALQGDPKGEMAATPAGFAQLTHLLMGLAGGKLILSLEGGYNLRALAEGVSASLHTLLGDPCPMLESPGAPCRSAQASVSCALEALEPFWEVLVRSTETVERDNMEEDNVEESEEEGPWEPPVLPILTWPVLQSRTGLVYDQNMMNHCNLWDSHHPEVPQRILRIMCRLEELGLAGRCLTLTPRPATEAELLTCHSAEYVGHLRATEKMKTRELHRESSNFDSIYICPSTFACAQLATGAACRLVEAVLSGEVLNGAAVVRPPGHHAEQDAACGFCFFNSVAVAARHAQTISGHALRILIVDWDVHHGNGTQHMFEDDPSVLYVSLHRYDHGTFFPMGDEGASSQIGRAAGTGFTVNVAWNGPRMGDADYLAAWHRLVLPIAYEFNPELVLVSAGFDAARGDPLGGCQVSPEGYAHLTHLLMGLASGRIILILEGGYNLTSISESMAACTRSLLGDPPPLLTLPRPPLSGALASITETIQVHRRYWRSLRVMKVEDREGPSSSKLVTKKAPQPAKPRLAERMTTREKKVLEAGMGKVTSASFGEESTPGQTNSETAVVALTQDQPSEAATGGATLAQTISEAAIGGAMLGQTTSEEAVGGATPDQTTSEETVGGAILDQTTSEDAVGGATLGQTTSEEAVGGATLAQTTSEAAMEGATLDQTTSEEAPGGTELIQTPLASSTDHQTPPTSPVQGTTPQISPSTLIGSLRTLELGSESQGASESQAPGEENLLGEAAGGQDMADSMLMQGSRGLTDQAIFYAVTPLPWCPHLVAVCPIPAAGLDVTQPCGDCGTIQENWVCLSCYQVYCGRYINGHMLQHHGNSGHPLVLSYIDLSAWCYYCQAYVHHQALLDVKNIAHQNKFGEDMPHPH

[16] = biological target: Histone deacetylase (Homo sapiens) (UniProt Q13547+O15379+Q9UBN7+Q92769+Q9UQL6+Q8WUI4+Q9BY41+Q96DB2+P56524+Q9UKV0+Q969S8); experiment: Inhibition of human HDAC in human WM164 cells increase in acetylated histone H3 levels at 0.1 to 10 uM by immunoblot analysis; type: cell-based; conditions: dose microM 0.1-10
Homo sapiens = species on record: Homo sapiens; experiment: Selectivity index, ratio of IC50 for HDAC1 (unknown origin) to HDAC6 (unknown origin)
[17] = biological target: T2, Protein deacetylase HDAC6 (Homo sapiens); experiment: Inhibition of human HDAC6 in human WM164 cells assessed as decrease in STAT3 Y705 phosphorylation at 5 uM pre-incubated before IL6 stimulation for 20 mins by immunoblot analysis; type: cell-based
SM1 [18] = experiment: Potentiation of antitumor immune response in C57BL/6 mouse harboring mouse SM1 cells assessed as decrease in tumor burden at 25 mg/kg, ip dosed 5 days per week before starting 15 mg/kg, ip anti-PD1 immune checkpoint blockade therapy measured on day 14; type: functional, organism-based; conditions: time 14.0 day
SM1 [19] = experiment: Potentiation of antitumor immune response in C57BL/6 mouse harboring mouse SM1 cells assessed as decrease in tumor burden at 25 mg/kg, ip dosed 5 days per week before starting 15 mg/kg, ip anti-PD1 immune checkpoint blockade therapy measured on day 20; type: functional, organism-based; conditions: time 20.0 day
Histone deacetylase 1 = Histone deacetylase 1 (Homo sapiens, UniProt Q13547)
Histone deacetylase 1, sequence (Q13547 whole entry): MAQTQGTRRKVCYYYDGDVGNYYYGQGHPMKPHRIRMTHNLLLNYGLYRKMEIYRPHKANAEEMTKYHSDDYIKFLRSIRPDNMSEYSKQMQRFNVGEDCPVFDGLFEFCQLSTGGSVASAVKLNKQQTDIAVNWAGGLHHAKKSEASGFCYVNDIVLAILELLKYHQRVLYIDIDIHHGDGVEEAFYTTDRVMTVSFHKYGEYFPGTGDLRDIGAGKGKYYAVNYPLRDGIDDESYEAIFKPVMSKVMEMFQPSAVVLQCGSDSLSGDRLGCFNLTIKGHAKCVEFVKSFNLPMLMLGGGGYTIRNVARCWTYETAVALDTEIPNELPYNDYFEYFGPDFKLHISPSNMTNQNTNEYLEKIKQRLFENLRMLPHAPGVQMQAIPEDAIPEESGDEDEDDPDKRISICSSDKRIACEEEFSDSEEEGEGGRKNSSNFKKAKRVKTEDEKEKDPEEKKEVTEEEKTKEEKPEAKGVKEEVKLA
Description: Inhibition of HDAC1 (unknown origin)

[20] = biological target: T3, Protein deacetylase HDAC6 (Homo sapiens, UniProt Q9UBN7)
T3 sequence (Q9UBN7 whole entry): T2 sequence (whole entry)
Description: Inhibition of HDAC6 (unknown origin)

SM1 [21] = experiment: Cytotoxicity in mouse SM1 cells assessed as reduction in cell viability up to 25 uM; type: functional, cell-based; conditions: dose microM <=25

IC50 (Histone deacetylase 11) [µM]	half-life [10] [min]	half-life [11] [min]	half-life at 10 µM [12] [min]	half-life at 10 µM [13] [min]	fraction unbound at 1 h, 10 µM [14]	inhibition [15]	inhibition [16]	Ratio IC50 (Homo sapiens)	IC50 (Histone deacetylase 1) [µM]	IC50 [20] [nM]	SMILES	Ratio IC50 (HEK293 [1])	Ratio IC50 (HEK293 [2])	Ratio IC50 (HEK293 [3])	Ratio IC50 (HEK293 [4])	Ratio IC50 (HEK293 [5])	Ratio IC50 (HEK293 [6])	Ratio IC50 (HEK293 [7])	Ratio IC50 (HEK293 [8])	Ratio IC50 (HEK293 [9])	further results
> 50	> 1440	> 300	> 300	173	0.53	Dose-dependent effect	Active				CCCCN(Cc1ccc(C(=O)NO)cc1)C(=O)Nc1ccc(CN)cc1	89	312	492	25700	11200	1	10000	682	19200	
								260			O=C(NO)c1cnc(NC2(c3ccccc3)CCC(F)(F)CC2)nc1										
	> 1440	> 300	> 300	423	0.11	Dose-dependent effect	Active				CCCCN(Cc1ccc(C(=O)NO)cc1)C(=O)Nc1ccccc1 [NEXTURASTAT A]										inhibition [17]: Active; TGI (SM1 [18]): Active; Activity (SM1 [19]): Active
								26	6.9	270	C[C@H](NC(=O)[C@H](CC(=O)NC(C)(C)C)NC(=O)c1ccc(C(=O)NO)cc1)C(=O)NCc1ccccc1										
> 50	> 1440	> 300	> 300	198	0.52	Dose-dependent effect	Active				O=C(NO)c1ccc(CN(CCCCO)C(=O)Nc2ccccc2)cc1	296	536	1160	27900	18300	1	3870	956	59500	Activity (SM1 [21]): inactive
								36	1.13	31	O=C(NO)c1ccc(CN(CCCO)C(=O)Cc2ccccc2)cc1										
